Tests used:
Human HPRT mRNA = experiment: HPRT mRNA silencing by DsiRNA-Transductin in well-differentiated HAE (RT-qPCR); type: cell-based
Experimental: FIG. 1. […] (a) Well-differentiated HAE cultures grown at the ALI were incubated in adding HPRT-targeting or control NC1 DsiRNA (250 nM) formulated with Transductin containing 0.1 or 0.01 mg LOS (HPRT-targeting DsiRNAs) or 0.1 mg LOS (NC1 DsiRNA). After 4 hours, the apical surface was rinsed and 24 hours later, target RNA levels quantified by RT-qPCR. All mRNA levels were normalized to NC1-treated samples. Mean levels were calculated from three biological replicates, each done in triplicate. ***p<0.001, **p<0.01 (Student's t-test). […] Samples were normalized to NC1-treated cells. ***p<0.001, **p<0.01 (Student's t-test). […] PAFRa was present throughout transfection in cells pre-treated with the reagent. Cells were harvested and RNA quantified 24 hrs later. Samples were normalized to NC1-treated cells. **p<0.01 (Student's t-test).
FIG. 3. Spiperone improves RNAi responses in DsiRNA transduced cells. HAE were pre-treated with various small molecules at the concentration indicated. The drugs were added to the apical surface and the basolateral media for 6 hours. Both surfaces were then washed and HPRT or NC1 DsiRNA formulated with Transductin added to the apical surface. The cells were washed after 4 hours, and RT-qPCR done on cell lysates harvested 24 hours later.
Human airway epithelial cells were obtained from trachea and bronchi of lungs removed for organ donation from non-CF individuals. Cells were isolated by enzyme digestion as previously described. Following enzymatic dispersion, cells were seeded at a density of 5×10^5 cells/cm^2 onto collagen-coated, 0.6 cm^2 semi permeable membrane filters (Millipore polycarbonate filters; Millipore Corp., Bedford, Mass.). The cells were maintained at 37° C. in a humidified atmosphere of 5% CO2 air. Twenty-four hours after plating, the apical media was removed and the cells were maintained at an air-liquid interface (ALI) to allow differentiation of the epithelium. The culture medium consisted of 1:1 ratio mix of Dulbecco's modified Eagle's medium (DMEM)/Ham's F12, 5% Ultroser G (Biosepra S A, Cedex, France), 100 U/ml penicillin, 100 μg/ml streptomycin, 1% nonessential amino acids and 0.12 U/ml insulin. Studies were performed on well-differentiated epithelia approximately 4 to 6 weeks after initiation of the ALI cultures conditions. HEp-2 cells were maintained in MEM substituted with 10% fetal bovine serum and 100 U/ml penicillin.
PAF was purchased from Sigma-Aldrich. The reagent was reconstituted in ethanol and used in the experiment at a concentration of 200 nM or as described in the figures. PAF was added to the transfection mixture at the apical surface as well as to the basolateral media. PAFRa (WEB 2086) was purchased from Sigma-Aldrich. […] The reagent was incubated with the cells throughout the transfection period.
All the small molecules tested were purchased from Sigma-Aldrich. The chemicals were reconstituted in appropriate solutions as recommended by the manufacturer. The epithelia were pre-treated with drugs for 6 hours at concentrations used in the CMAP study or noted in the published literature. Following drug treatment, the epithelia were transduced with DsiRNA as described above.
For well-differentiated airway epithelia, transfection was performed mostly according to the manufacturer's protocol. In all cases, the apical surface of epithelia was rinsed twice with PBS before adding the transfection mixture to the apical surface. DsiRNAs were used at a concentration of 250 nM. The mixture was left on the cells for 4 hours after which the medium was removed, the apical surface rinsed with PBS and the cells incubated further for 24 hours. For all experiments, a minimum of 3 biological replicates, in triplicate, were done.
Total RNA was isolated using SV96 RNA isolation kit (Promega, Madison, Wis.), according to manufacturer's protocol. […]

CFTR channel activity = experiment: Transepithelial short-circuit current and conductance in HAE; type: cell-based, human; details: PAF treated and CFTR DsiRNA transduced cells
RSV strain A2 = experiment: RSV titer in apical washings of infected HAE (plaque assay on HEp-2 cells); type: cell-based, Respiratory Syncytial Virus
Text: FIG. 6. […] HAE was either treated or untreated with PAF in concurrence with RSV N DsiRNA. Six hours later the cells were infected with RSV at an MOI of 1. Forty eight hours later, the cell washings from the apical surface was collected and assayed for viral titer (a). The cells were lysed and the proteins visualized after immunoprecipitation with anti-RSV antibodies (b) and the bands quantified by densitometry (c). Data are mean±SD from the results three different experiments, each using a different donor. ***p<0.001 (Student's t-test).
For infections, RSV aliquots were resuspended in cold DMEM or DMEM/F12. RSV strain A2 (wt RSV) was kindly provided by Barney Graham (NIH, Bethesda, Md.), and working stocks of RSV were prepared in HEp-2 cells (ATCC).
RSV infection of HAE for both for immunoblot and viral titer was done at an MOI of 1. The virus was thawed at 37° C. and diluted in MEM (0% FCS) to a volume of 70 μl (1MOI)/well. The cells in Millicell filters were rinsed with the same media once and the virus applied to the apical surface. The plate was incubated at 37° C. for a period of 2 hours. […]
HEp-2 cells were seeded onto 12-well plate at a sufficient density so that it reached 90-95% confluence the next day. […] The cells were incubated for an additional 24 hours at 37° C. after which the plaques were counted under a light box. […]

## platelet activating factor [PAF]
Human HPRT mRNA; 1 and 3 days post PAF-assisted transfection
  duration of knock down: HPRT mRNA levels: significantly reduced
Human HPRT mRNA; 6 and 10 days post PAF-assisted transfection
  duration of knock down: HPRT transcript levels: returning to basal levels
Human HPRT mRNA; PAF at different doses, 4 hours with HPRT DsiRNA-Transductin (FIG. 7)
  dose-response of PAF on DsiRNA silencing: A dose-response relationship for PAF on DsiRNA silencing was observed
CFTR channel activity
  cAMP-activated changes in transepithelial current and conductance: significantly reduced
RSV strain A2; PAF with RSV N DsiRNA-Transductin, RSV MOI 1 six hours later, 48 hours after infection
  reduction of viral titers from apical rinses: more than 100 fold
RSV strain A2; PAFR activation alone (no RSV N DsiRNA effect)
  effect on viral titers: did not reduce viral titers
